Assay results reported in the OligoGym collection.
HELM strings list units from the 5' end as sugar, base in round brackets, then linkage (d deoxyribose, r ribose, m 2'-O-methyl, p phosphodiester). Strings are as the collection lists them; they lack the last nucleoside at the 3' end of the tested compound. [moe] = 2'-O-(2-methoxyethyl) (MOE); [sp] = phosphorothioate linkage; [m5C] = 5-methylcytosine

Molecular target: APP
Assay: mouse, dose not given
Settings: ASO

Question: How did the 3 h FOB score turn out when “RNA1{[moe](G)[sp].[moe]([m5C])p.[moe]([m5C])p.[moe](A)p.[moe](T)[sp].d(A)[sp].d(T)[sp].d(T)[sp].d(G)[sp].d(T)[sp].d([m5C])[sp].d(A)[sp].d(T)[sp].d(T)[sp].d(T)[sp].[moe](T)p.[moe](A)p.[moe]([m5C])[sp].[moe](A)}$$$$ (last 3' nucleoside missing)” was run?
Answer: 1.33 score 0-7

Question: For “RNA1{[moe](G)[sp].[moe]([m5C])p.[moe]([m5C])p.[moe](T)p.[moe](T)[sp].d(A)[sp].d(T)[sp].d(T)[sp].d(A)[sp].d(T)[sp].d([m5C])[sp].d(T)[sp].d([m5C])[sp].d(A)[sp].d(A)[sp].[moe](A)p.[moe]([m5C])p.[moe](T)[sp].[moe]([m5C])}$$$$ (last 3' nucleoside missing)”, which 3 h FOB score is on record?
Answer: 0 score 0-7

Question: With “RNA1{[moe](T)[sp].[moe](A)p.[moe](G)p.[moe](G)p.[moe](A)[sp].d(A)[sp].d([m5C])[sp].d(T)[sp].d([m5C])[sp].d(G)[sp].d(A)[sp].d(A)[sp].d([m5C])[sp].d([m5C])[sp].d(A)[sp].[moe]([m5C])p.[moe]([m5C])p.[moe](T)[sp].[moe]([m5C])}$$$$ (last 3' nucleoside missing)” as the substance, how does the 3 h FOB score read?
Answer: 0.5 score 0-7

Question: For “RNA1{[moe](T)[sp].[moe](A)p.[moe](G)p.[moe](T)p.[moe](A)[sp].d([m5C])[sp].d(A)[sp].d(T)[sp].d(T)[sp].d([m5C])[sp].d([m5C])[sp].d(A)[sp].d([m5C])[sp].d(T)[sp].d(T)[sp].[moe](T)p.[moe](G)p.[moe](T)[sp].[moe](T)}$$$$ (last 3' nucleoside missing)”, which 3 h FOB score is on record?
Answer: 0 score 0-7

Question: For “RNA1{[moe](T)[sp].[moe](A)p.[moe](T)p.[moe](G)p.[moe](A)[sp].d([m5C])[sp].d(A)[sp].d(A)[sp].d([m5C])[sp].d(A)[sp].d([m5C])[sp].d([m5C])[sp].d(G)[sp].d([m5C])[sp].d([m5C])[sp].[moe]([m5C])p.[moe](A)p.[moe]([m5C])[sp].[moe]([m5C])}$$$$ (last 3' nucleoside missing)”, which 3 h FOB score is on record?
Answer: 4 score 0-7

Question: How did the 3 h FOB score turn out when “RNA1{[moe](T)[sp].[moe](A)p.[moe]([m5C])p.[moe](A)p.[moe](T)[sp].d([m5C])[sp].d(A)[sp].d(T)[sp].d(T)[sp].d(T)[sp].d(T)[sp].d([m5C])[sp].d(T)[sp].d(T)[sp].d(G)[sp].[moe]([m5C])p.[moe](A)p.[moe](G)[sp].[moe](T)}$$$$ (last 3' nucleoside missing)” was run?
Answer: 2.75 score 0-7

Question: Which 3 h FOB score does the source give for “RNA1{[moe](T)[sp].[moe](G)[sp].[moe](T)[sp].[moe]([m5C])[sp].[moe](A)[sp].d([m5C])[sp].d(T)[sp].d(T)[sp].d(T)[sp].d([m5C])[sp].d(T)[sp].d(T)[sp].d([m5C])[sp].d(A)[sp].d(G)[sp].[moe]([m5C])[sp].[moe]([m5C])[sp].[moe](A)[sp].[moe](G)}$$$$ (last 3' nucleoside missing)” here?
Answer: 6 score 0-7

Question: For “RNA1{[moe](T)[sp].[moe](G)p.[moe](A)p.[moe](T)p.[moe](G)[sp].d([m5C])[sp].d(A)[sp].d([m5C])[sp].d(A)[sp].d(T)[sp].d(A)[sp].d(T)[sp].d([m5C])[sp].d([m5C])[sp].d(A)[sp].[moe](G)p.[moe](G)p.[moe]([m5C])[sp].[moe](T)}$$$$ (last 3' nucleoside missing)”, which 3 h FOB score is on record?
Answer: 0.25 score 0-7

Question: With “RNA1{[moe](T)[sp].[moe](G)p.[moe](G)p.[moe](G)p.[moe]([m5C])[sp].d(A)[sp].d(T)[sp].d([m5C])[sp].d(A)[sp].d(T)[sp].d(T)[sp].d(T)[sp].d(T)[sp].d(T)[sp].d(G)[sp].[moe]([m5C])p.[moe](T)p.[moe]([m5C])[sp].[moe]([m5C])}$$$$ (last 3' nucleoside missing)” as the substance, how does the 3 h FOB score read?
Answer: 0 score 0-7

Question: “RNA1{[moe](T)[sp].[moe](G)p.[moe](G)p.[moe](T)p.[moe](A)[sp].d([m5C])[sp].d(T)[sp].d(A)[sp].d(T)[sp].d(T)[sp].d(T)[sp].d([m5C])[sp].d(T)[sp].d(A)[sp].d(A)[sp].[moe](G)p.[moe](G)p.[moe](A)[sp].[moe](A)}$$$$ (last 3' nucleoside missing)” was tested. Which 3 h FOB score did it give?
Answer: 0.33 score 0-7

Question: With “RNA1{[moe](T)[sp].[moe](G)p.[moe](G)p.[moe](T)p.[moe](T)[sp].d(T)[sp].d(A)[sp].d([m5C])[sp].d([m5C])[sp].d(T)[sp].d(T)[sp].d(T)[sp].d(A)[sp].d(A)[sp].d([m5C])[sp].[moe](A)p.[moe](T)p.[moe](T)[sp].[moe]([m5C])}$$$$ (last 3' nucleoside missing)” as the substance, how does the 3 h FOB score read?
Answer: 0 score 0-7

Question: How did the 3 h FOB score turn out when “RNA1{[moe](T)[sp].[moe](G)p.[moe](G)p.[moe](T)p.[moe]([m5C])[sp].d(A)[sp].d(T)[sp].d(T)[sp].d(A)[sp].d([m5C])[sp].d(T)[sp].d(A)[sp].d([m5C])[sp].d(T)[sp].d(T)[sp].[moe](A)p.[moe]([m5C])p.[moe](A)[sp].[moe]([m5C])}$$$$ (last 3' nucleoside missing)” was run?
Answer: 0 score 0-7

Question: For “RNA1{[moe](T)[sp].[moe](G)p.[moe](G)p.[moe](T)p.[moe]([m5C])[sp].d(A)[sp].d(T)[sp].d([m5C])[sp].d(A)[sp].d(A)[sp].d([m5C])[sp].d(T)[sp].d(T)[sp].d(T)[sp].d(T)[sp].[moe](T)p.[moe](A)p.[moe](G)[sp].[moe](T)}$$$$ (last 3' nucleoside missing)”, which 3 h FOB score is on record?
Answer: 0 score 0-7

Question: For “RNA1{[moe](T)[sp].[moe](G)p.[moe](G)p.[moe](T)p.[moe]([m5C])[sp].d(T)[sp].d(A)[sp].d(T)[sp].d(A)[sp].d(T)[sp].d(A)[sp].d(T)[sp].d(T)[sp].d(T)[sp].d([m5C])[sp].[moe](A)p.[moe](G)p.[moe](G)[sp].[moe]([m5C])}$$$$ (last 3' nucleoside missing)”, which 3 h FOB score is on record?
Answer: 0 score 0-7

Question: Which 3 h FOB score does the source give for “RNA1{[moe](T)[sp].[moe](G)p.[moe](G)p.[moe]([m5C])p.[moe](A)[sp].d(A)[sp].d(A)[sp].d([m5C])[sp].d(T)[sp].d([m5C])[sp].d(T)[sp].d([m5C])[sp].d(T)[sp].d(T)[sp].d(A)[sp].[moe](G)p.[moe](G)p.[moe](T)[sp].[moe](T)}$$$$ (last 3' nucleoside missing)” here?
Answer: 1.33 score 0-7

Question: “RNA1{[moe](T)[sp].[moe](G)p.[moe](G)p.[moe]([m5C])p.[moe](T)[sp].d(T)[sp].d(A)[sp].d(T)[sp].d(G)[sp].d(A)[sp].d(T)[sp].d([m5C])[sp].d(T)[sp].d(A)[sp].d(T)[sp].[moe](A)p.[moe]([m5C])p.[moe](A)[sp].[moe]([m5C])}$$$$ (last 3' nucleoside missing)” was tested. Which 3 h FOB score did it give?
Answer: 1 score 0-7

Question: How did the 3 h FOB score turn out when “RNA1{[moe](T)[sp].[moe](G)p.[moe](T)p.[moe](G)p.[moe](A)[sp].d(T)[sp].d(T)[sp].d(T)[sp].d([m5C])[sp].d(A)[sp].d([m5C])[sp].d(T)[sp].d(A)[sp].d(A)[sp].d([m5C])[sp].[moe]([m5C])p.[moe](G)p.[moe](G)[sp].[moe]([m5C])}$$$$ (last 3' nucleoside missing)” was run?
Answer: 1.25 score 0-7

Question: For “RNA1{[moe](T)[sp].[moe](G)p.[moe](T)p.[moe](G)p.[moe]([m5C])[sp].d(A)[sp].d([m5C])[sp].d(A)[sp].d(T)[sp].d(A)[sp].d(A)[sp].d(A)[sp].d(A)[sp].d([m5C])[sp].d(A)[sp].[moe](G)p.[moe](G)p.[moe]([m5C])[sp].[moe](A)}$$$$ (last 3' nucleoside missing)”, which 3 h FOB score is on record?
Answer: 1 score 0-7

Question: With “RNA1{[moe](T)[sp].[moe](G)p.[moe](T)p.[moe](T)p.[moe]([m5C])[sp].d([m5C])[sp].d(A)[sp].d(A)[sp].d(A)[sp].d(G)[sp].d(A)[sp].d(T)[sp].d(T)[sp].d([m5C])[sp].d([m5C])[sp].[moe](A)p.[moe]([m5C])p.[moe](T)[sp].[moe](T)}$$$$ (last 3' nucleoside missing)” as the substance, how does the 3 h FOB score read?
Answer: 1 score 0-7

Question: How did the 3 h FOB score turn out when “RNA1{[moe](T)[sp].[moe](T)p.[moe](A)p.[moe]([m5C])p.[moe](A)[sp].d(T)[sp].d([m5C])[sp].d(A)[sp].d(T)[sp].d(T)[sp].d(T)[sp].d(T)[sp].d([m5C])[sp].d(T)[sp].d(T)[sp].[moe](G)p.[moe]([m5C])p.[moe](A)[sp].[moe](G)}$$$$ (last 3' nucleoside missing)” was run?
Answer: 0.33 score 0-7

Question: With “RNA1{[moe](T)[sp].[moe](T)p.[moe](A)p.[moe]([m5C])p.[moe]([m5C])[sp].d(T)[sp].d(T)[sp].d(T)[sp].d(A)[sp].d(A)[sp].d([m5C])[sp].d(A)[sp].d(T)[sp].d(T)[sp].d([m5C])[sp].[moe]([m5C])p.[moe](T)p.[moe]([m5C])[sp].[moe](A)}$$$$ (last 3' nucleoside missing)” as the substance, how does the 3 h FOB score read?
Answer: 0 score 0-7

Question: For “RNA1{[moe](T)[sp].[moe](T)p.[moe](G)p.[moe](A)p.[moe](A)[sp].d([m5C])[sp].d([m5C])[sp].d([m5C])[sp].d(A)[sp].d([m5C])[sp].d(A)[sp].d(T)[sp].d([m5C])[sp].d(T)[sp].d(T)[sp].[moe]([m5C])p.[moe](T)p.[moe](G)[sp].[moe]([m5C])}$$$$ (last 3' nucleoside missing)”, which 3 h FOB score is on record?
Answer: 0 score 0-7

Question: For “RNA1{[moe](T)[sp].[moe](T)p.[moe](G)p.[moe](A)p.[moe](T)[sp].d(A)[sp].d(T)[sp].d(T)[sp].d(T)[sp].d(G)[sp].d(T)[sp].d([m5C])[sp].d(A)[sp].d(A)[sp].d([m5C])[sp].[moe]([m5C])p.[moe]([m5C])p.[moe](A)[sp].[moe](G)}$$$$ (last 3' nucleoside missing)”, which 3 h FOB score is on record?
Answer: 2.5 score 0-7

Question: For “RNA1{[moe](T)[sp].[moe](T)p.[moe](G)p.[moe](A)p.[moe](T)[sp].d(G)[sp].d([m5C])[sp].d(A)[sp].d([m5C])[sp].d(A)[sp].d(T)[sp].d(A)[sp].d(T)[sp].d([m5C])[sp].d([m5C])[sp].[moe](A)p.[moe](G)p.[moe](G)[sp].[moe]([m5C])}$$$$ (last 3' nucleoside missing)”, which 3 h FOB score is on record?
Answer: 2 score 0-7

Question: With “RNA1{[moe](T)[sp].[moe](T)p.[moe](G)p.[moe](A)p.[moe](T)p.[moe](A)p.d(T)[sp].d(T)[sp].d(T)[sp].d(G)[sp].d(T)[sp].d([m5C])[sp].d(A)[sp].d(A)[sp].d([m5C])[sp].d([m5C])[sp].[moe]([m5C])p.[moe](A)[sp].[moe](G)}$$$$ (last 3' nucleoside missing)” as the substance, how does the 3 h FOB score read?
Answer: 4.75 score 0-7

Question: Which 3 h FOB score does the source give for “RNA1{[moe](T)[sp].[moe](T)p.[moe](G)p.[moe](G)p.[moe](A)[sp].d(T)[sp].d(T)[sp].d([m5C])[sp].d(A)[sp].d(T)[sp].d([m5C])[sp].d(T)[sp].d([m5C])[sp].d([m5C])[sp].d(A)[sp].[moe](T)p.[moe](A)p.[moe]([m5C])[sp].[moe](T)}$$$$ (last 3' nucleoside missing)” here?
Answer: 0 score 0-7
